Here are results for four compounds from patent US7375106B2, “Synergistic combination of an opioid analgesic and a NSAID” (N.V. Organon, priority 2002, dated 2008).

Experiment [1] concerns licking of the formalin injected paw (Phase 2, 20-30 min). Put plainly: Formalin paw test, determination of ID50 of single agents (experiment 1). It is filed as in vivo, male mice (Hsd Ola:ICR). The conditions noted are these: single agent; for Effect on Phase 2 licking: i.v., increasing doses; for ID50 (μg/kg) for 2nd phase of licking (95% confidence limits): intravenously 15 min before formalin (20 μl; 3%), 20-30 min after formalin. On the procedure:
Six mice were observed simultaneously.
All test agents were administered via a tail vein. […] Each animal was used once only.
Animals (n=6 for each dose/drug) received increasing doses of morphine, ketorolac, indomethacin, the hydrochloride salt of Org 41793 (Org 43273) or vehicle administered intravenously 15 min before injection of formalin (20 μl; 3%) into the plantar surface of the left hindpaw. Data were plotted as the mean time spent licking the formalin injected paw±s.e.m for each of the two time periods (0-5 & 20-30 min) and an ID50 for the group calculated. To calculate the ID50 for the second phase of licking, the time spent licking following test drug treatment was calculated as a percentage of the time spent licking by vehicle-treated mice. An ID50 was then calculated using a non-linear regression fit, sigmoidal dose-response with constants of 0 and 100 for the bottom and top, respectively (GraphPad Prism software).

Experiment [2] has the same test system. Put plainly: Formalin paw test, co-administration in constant dose ratio with isobolographic analysis (experiment 2). The conditions noted are these: for Theoretical ID50 (μg/kg) for 2nd phase of licking (95% confidence limits): component dose at theoretical additive point; for Theoretical ID50 (μg/kg) for 2nd phase of licking (95% confidence limits) / Experimental ID50 (μg/kg) for 2nd phase of licking (95% confidence limits): i.v.; for Experimental ID50 (μg/kg) for 2nd phase of licking (95% confidence limits): component dose, constant dose ratio; for Effect on amount of morphine or Org 41793 required to elicit antinociception: second phase of licking.
Description: In mice, recording the time spent licking or biting the injected paw is the most common method of behavioural assessment.
Experiments were performed on male mice (Hsd Ola:ICR) from Harlan UK Ltd. (Bicester, UK). Subjects were grouped on receipt and acclimatised for a minimum of 5 days at a constant temperature (21°±1° C.) under a 12-hour light/12-hour dark cycle. Mice were tail-marked. At the end of the study all mice were euthanized with CO2 or cervical dislocation.
Following subcutaneous formalin injection into the plantar surface of the paw, animals were placed in a Perspex box on a glass plate. A piece of black cardboard was placed on top of the box. A video camera (Sony) placed beneath the glass plate was then used to record the mice for 45 min after formalin injection. Six mice were observed simultaneously. The video camera was linked to a PC and the video images captured as MPEG files using a software package (Studio MP10). The MPEG file was later transferred to CD for offline analysis. A behavioural scoring program (The Observer) was then used to measure the time the mice spent licking the injected paw. Two blocks of time were analysed: 0-5 min (Phase 1) and 20-30 min (Phase 2). These two time periods were chosen to reflect the two phases of licking that typically occur after formalin injection.
All test agents were administered via a tail vein. […] Animals were weighed immediately prior to testing and all test agents were administered in a dosing volume of 5 ml/kg. Each animal was used once only.
The ID50 values calculated in experiment 1 for the second phase licking as previously described were used for this experiment. […] The ID50 of the total dose of the mixture was then calculated from this dose-response curve.
Testing for a significant difference by t-test was not possible since confidence intervals (CIs) were not symmetric around the theoretical additive ID50.

The mark [3] stands for this setting: combination Org 41793 with ketorolac.
The mark [4] stands for this setting: combination Org 41793 with ketorolac, listed as ketorolac.
[5] abbreviates: combination Org 41793 with indomethacin.
Where [6] appears, read: combination Org 41793 with indomethacin, listed as indomethacin.

On to `CN1CC[C@]23c4c5ccc(O)c4O[C@H]2[C@@H](O)C=C[C@H]3[C@H]1C5.O.O.O.O.O.O=S(=O)(O)O` [Morphine, Morphine sulphate pentahydrate], for which, in experiment [1], the “Effect on Phase 2 licking” value was “dose-dependent inhibition” and the “ID50 (μg/kg) for 2nd phase of licking (95% confidence limits)” value was 870 (496-1522) μg/kg. In addition, the “ID50 (μg/kg) for 2nd phase of licking (95% confidence limits)” value in experiment [1] (listed as morphine) came to 870 µg/kg.
In the case of `O=C(c1ccccc1)c1ccc2n1CCC2C(=O)O` (racemic) [Ketorolac, (±)-5-benzoyl-2,3-dihydro-1H-pyrrolizine-1-carboxylic acid, 2-amino-2-(hydroxymethyl)-1,3-propanediol], in experiment [1], the “Effect on Phase 2 licking” value is on record as “dose-dependent inhibition” and the “ID50 (μg/kg) for 2nd phase of licking (95% confidence limits)” value is recorded as 70 (40-134) μg/kg. For the same compound, the “ID50 (μg/kg) for 2nd phase of licking (95% confidence limits)” value in experiment [1] (listed as ketorolac) turned out to be 70 µg/kg. In experiment [2] (setting [3]), the “Theoretical ID50 (μg/kg) for 2nd phase of licking (95% confidence limits)” value (from here on “Theoretical ID50 … (95% confidence limits)”) is “Ketorolac: 35 (20-67) μg/kg” and the “Experimental ID50 (μg/kg) for 2nd phase of licking (95% confidence limits)” value (“Experimental ID50 … (95% confidence limits)” for short) is given as “Ketorolac: 5 (2-12) μg/kg”. In experiment [2] (setting [4]), the “Theoretical ID50 … (95% confidence limits)” value amounted to 35 µg/kg and the “Experimental ID50 … (95% confidence limits)” value is 5 µg/kg. In addition, the “Effect on amount of morphine or Org 41793 required to elicit antinociception” value in experiment [2] was “opioid sparing”.
As for `C=CCN1C[C@H](C)N([C@@H](c2cccc(O)c2)c2cccc(C(=O)N(C)c3cccc(F)c3)c2)C[C@H]1C` [Org 41793, 3-[(αR)-α-((2S,5R)-4-allyl-2,5-dimethyl-1-piperazinyl)-3-hydroxybenzyl]-N-(3-fluorophenyl)-N-methylbenzamide], in experiment [1], the “Effect on Phase 2 licking” value is recorded as “dose-dependent inhibition” and the “ID50 (μg/kg) for 2nd phase of licking (95% confidence limits)” value is 92 (60-140) μg/kg.
For `COc1ccc2c(c1)c(CC(=O)O)c(C)n2C(=O)c1ccc(Cl)cc1` [Indomethacin, indomethacin], the “Effect on Phase 2 licking” value in experiment [1] is given as “dose-dependent inhibition”. Moreover, the “ID50 (μg/kg) for 2nd phase of licking (95% confidence limits)” value in experiment [1] was 340 (218-531) μg/kg; in experiment [1] (listed as indomethacin) it was 340 µg/kg. Also, the “Theoretical ID50 … (95% confidence limits)” value in experiment [2] (setting [5]) is “Indomethacin: 170 (109- μg/kg”; in experiment [2] (setting [6]), 170 µg/kg. Besides, the figures for the “Experimental ID50 … (95% confidence limits)” value in experiment [2] (setting [5]) and in experiment [2] (setting [6]) were “Indomethacin: 40 (26-58) μg/kg” and 40 µg/kg, respectively. Besides, the “Effect on amount of morphine or Org 41793 required to elicit antinociception” value in experiment [2] is “opioid sparing”.
